Laboratory results as given in patent publication US7572827B2, “Use of angelicin and of its structural analogues for the treatment of thalassemia” (Universita' Degli Studi Di Ferrara, priority 2002, dated 2009).

Experiments:
human cell line K562 [1] = experiment: Haemoglobin production in K562 cells (cellulose acetate electrophoresis, benzidine/H2O2 staining); assay type: cell-based; details: 400 μM angelicin for 6 days
Description: (§1) The level of differentiation was evaluated by analyzing the positive reaction of the cells to benzidine (3). The production of haemoglobin was evaluated by electrophoresis on cellulose acetate and by colouring the gel with a solution based on benzidine/H2O2 (3). The expression of the genes encoding for gamma-globin was evaluated by quantitative RT-PCR (reverse transcriptase PCR) (3).

human cell line K562 [2] = experiment: Erythroid differentiation of K562 cells (benzidine-positive cells); assay type: cell-based; details: for Erythroid differentiation (%) = percentage of K562 cells that react positively to benzidine: optimal concentration of each compound (cytosine arabinoside 1 μM, bergapten 200 μM, angelicin 400 μM), six experiments, control 3-4
Description: (§2) The biological activity of angelicin was evaluated by examining the capacity of that compound to modulate the expression of genes for gamma-globin in the human cell line K562, which is capable of differentiating in the erythroid manner by expressing genes for gamma-globin if subjected to treatment with modifiers of the biological response that are suitable for the purpose (3, 18, 19).
as §1

[3] = test system: gamma-globin mRNA in K562 cells; experiment: Gamma-globin mRNA accumulation in K562 cells by quantitative RT-PCR; assay type: cell-based, human; details: K562 cells treated for 6 days, cytosine arabinoside 1 μM, bergapten 200 μM, angelicin 400 μM, control = 1
Description: as §2, §1

[4] = test system: gamma-globin mRNA in human erythroid precursors; experiment: Gamma-globin mRNA accumulation in human erythroid precursors isolated from peripheral blood (Fibach two-stage culture), quantitative RT-PCR; assay type: cell-based; details: for Gamma-globin mRNA, increase compared with untreated control erythroid precursors: human erythroid precursors, angelicin 500 μM, hydroxyurea 120 μM, control = 1, quantitative RT-PCR
Text: In order to check whether angelicin was also capable of stimulating the production of mRNA for gamma-globin in human erythroid precursors isolated from peripheral blood, the technique published by Fibach et al. (20, 21) was used. This technique provides for two stages: in the first stage, the cells isolated from peripheral blood of a subject who is healthy or suffering from a haemopoietic pathology, such as sickle cell anaemia or beta-thalassaemia, are sown in a culture medium to which 10% of conditioned medium derived from the vesicle carcinoma cell line 5637 has been added. The second stage consists in cultivating the isolated cells in a suitable culture medium, supplemented by the erythropoietin hormone, 30% bovine foetal serum, 2-mercaptoethanol, albumin, glutamine and desamethasone in order to permit the proliferation and maturing of stem cells of the erythroid type. In this stage the cells can be treated with potential HbF inducers.

SMILES: O=c1ccc2ccc3occc3c2o1 [angelicin]
- chief haemoglobin produced (human cell line K562 [1]): Hb Portland (alpha2gamma2)
- Erythroid differentiation (%) = percentage of K562 cells that react positively to benzidine (human cell line K562 [2]): 55-60%
- percentage of K562 cells that react positively to benzidine (human cell line K562 [2]; angelicin 400 μM, 6 days, control K562 cells 3-4%): 55-60%
- Gamma-globin mRNA, increase compared with untreated control K562 cells [3]: 44.94
- increase in the production of mRNA for gamma-globin compared with the same untreated cells ([4]; human erythroid precursors from peripheral blood treated with angelicin): 20.53 times
- Gamma-globin mRNA, increase compared with untreated control erythroid precursors [4]: 20.53

SMILES: Nc1ccn([C@@H]2O[C@H](CO)[C@@H](O)[C@@H]2O)c(=O)n1 [cytosine arabinoside, reference compound]
- Erythroid differentiation (%) = percentage of K562 cells that react positively to benzidine (human cell line K562 [2]): 75-80%
- Gamma-globin mRNA, increase compared with untreated control K562 cells [3]: 3.24

SMILES: NC(=O)NO [hydroxyurea, reference compound]
- Gamma-globin mRNA, increase compared with untreated control erythroid precursors [4]: 6.96

SMILES: COc1c2ccoc2cc2oc(=O)ccc12 [bergapten, 5-methoxypsoralen]
- Erythroid differentiation (%) = percentage of K562 cells that react positively to benzidine (human cell line K562 [2]): 50-60%
- Gamma-globin mRNA, increase compared with untreated control K562 cells [3]: 3.48
